Consider 15 compounds from patent US11040968B2, “Pyridine derivative as ASK1 inhibitor and preparation method and use thereof” (FUJIAN COSUNTER PHARMACEUTICAL CO., LTD., priority 2017, dated 2021).

As a reminder, the IC50 is the point on the concentration scale where inhibition reaches its midpoint.

Like-named read-outs stand apart in the source and are kept apart here.

For data set [1], the target named is ASK1/MAP3K5 (Homo sapiens (Human), UniProt Q99683). As to the kind of experiment: Enzyme activity: ASK1 kinase 33P-ATP filter-binding assay with MBP substrate. The class given is biochemical. As to the method:
Experimental Example 1: Enzyme Activity
Primary reaction buffer solution: 20 mM Hepes (pH 7.5), 10 mM MgCl2, 1 mM EGTA, 0.02% Brij35, 0.02 mg/ml BSA, 0.1 mM Na3VO4, 2 mM DTT, 1% DMSO
Treatment of the Compound:
The tested compounds were formulated into a 10 mM stock solution in DMSO, diluted in 3-fold gradient for a total of 10 concentrations, and placed in a 384-well plate (Cyclic Olefin Copolymer LDV Echo®).
Kinase Name: ASK1/MAP3K5 (Invitrogen, Carlsbad, Calif.)
Type: Recombinant Human Full Length Protein, GST-tagged
Final reaction concentration of the enzyme: 20 nM
Substrate: Myelin basic protein, MBP (Active Motif, Carlsbad, Calif.)
Final reaction concentration of the substrate: 20 μM
1. The substrate was dissolved in a freshly prepared primary reaction buffer solution,
2. The desired coenzyme factor was added to the above substrate solution,
3. The kinase was added to the substrate solution and mix gently,
4. The solution tested compound in DMSO was added to the kinase reaction solution and incubated at room temperature for 20 minutes.
5. The reaction was initiated by adding ^33P-ATP (specific activity 10 μCi/μL) to the reaction solution.
6. Incubated at room temperature for 2 hours.
7. A small portion of the reactants were placed onto the P-81 ion exchange filter paper.
8. The filter paper was washed three times with 0.75% phosphate buffer to wash away unbound phosphate, and then dried.
9. The radioactivity remaining on the filter paper was determined,
10. The data for the kinase activity was expressed as the ratio of the kinase activity remaining in the test sample to the kinase activity in the vehicle (DMSO).
11. IC50 values and curve fitting were collected by Prism (GraphPad software).

Data set [2] in a line: Pharmacokinetic characteristics study in mice (plasma, LC-MS/MS). The note with it: C57BL/6 male mice. It is filed as in vivo. As to the method:
Experimental Example 2: Pharmacokinetic Characteristics Study
C57BL/6 male mice were used in this study. The drug concentration in the plasma of mice subjected to intravenous or oral administration of the test compound at different time points were quantitatively determine by LC/MS/MS method, respectively, in order to evaluate the pharmacokinetic characteristics of the tested drugs in mice.
A clear solution of the test compound was injected into C57BL/6 mice via the tail vein (overnight fasting, 7-10 weeks old), and the test compound was intragastrically administered to C57BL/6 mice (overnight fasting, 7-10 weeks old). 30 μL of the blood was collected from the jugular vein or the tail vein of the animals 0.0833, 0.25, 0.5, 1, 2, 4, 6, 8 and 24 hours after administration, and placed in the anticoagulant tube containing EDTA-K2, followed by centrifugation at 4° C. for 15 minutes to collect the plasma. The plasma concentration was determined by LC-MS/MS. The pharmacokinetic parameters were calculated by the non-compartment model linear logarithmic trapezoidal method using WinNonlin™ Version 6.3 (Pharsight, Mountain View, Calif.) pharmacokinetic software.

Where [3] appears, read: recombinant human full length GST-tagged ASK1 20 nM, MBP 20 μM, 33P-ATP, 2 hours room temperature, read-out: IC50.
Where [4] appears, read: ASK1 enzyme activity, class symbols, read-out: IC50 value.

Chain of ASK1/MAP3K5 (Q99683 whole entry): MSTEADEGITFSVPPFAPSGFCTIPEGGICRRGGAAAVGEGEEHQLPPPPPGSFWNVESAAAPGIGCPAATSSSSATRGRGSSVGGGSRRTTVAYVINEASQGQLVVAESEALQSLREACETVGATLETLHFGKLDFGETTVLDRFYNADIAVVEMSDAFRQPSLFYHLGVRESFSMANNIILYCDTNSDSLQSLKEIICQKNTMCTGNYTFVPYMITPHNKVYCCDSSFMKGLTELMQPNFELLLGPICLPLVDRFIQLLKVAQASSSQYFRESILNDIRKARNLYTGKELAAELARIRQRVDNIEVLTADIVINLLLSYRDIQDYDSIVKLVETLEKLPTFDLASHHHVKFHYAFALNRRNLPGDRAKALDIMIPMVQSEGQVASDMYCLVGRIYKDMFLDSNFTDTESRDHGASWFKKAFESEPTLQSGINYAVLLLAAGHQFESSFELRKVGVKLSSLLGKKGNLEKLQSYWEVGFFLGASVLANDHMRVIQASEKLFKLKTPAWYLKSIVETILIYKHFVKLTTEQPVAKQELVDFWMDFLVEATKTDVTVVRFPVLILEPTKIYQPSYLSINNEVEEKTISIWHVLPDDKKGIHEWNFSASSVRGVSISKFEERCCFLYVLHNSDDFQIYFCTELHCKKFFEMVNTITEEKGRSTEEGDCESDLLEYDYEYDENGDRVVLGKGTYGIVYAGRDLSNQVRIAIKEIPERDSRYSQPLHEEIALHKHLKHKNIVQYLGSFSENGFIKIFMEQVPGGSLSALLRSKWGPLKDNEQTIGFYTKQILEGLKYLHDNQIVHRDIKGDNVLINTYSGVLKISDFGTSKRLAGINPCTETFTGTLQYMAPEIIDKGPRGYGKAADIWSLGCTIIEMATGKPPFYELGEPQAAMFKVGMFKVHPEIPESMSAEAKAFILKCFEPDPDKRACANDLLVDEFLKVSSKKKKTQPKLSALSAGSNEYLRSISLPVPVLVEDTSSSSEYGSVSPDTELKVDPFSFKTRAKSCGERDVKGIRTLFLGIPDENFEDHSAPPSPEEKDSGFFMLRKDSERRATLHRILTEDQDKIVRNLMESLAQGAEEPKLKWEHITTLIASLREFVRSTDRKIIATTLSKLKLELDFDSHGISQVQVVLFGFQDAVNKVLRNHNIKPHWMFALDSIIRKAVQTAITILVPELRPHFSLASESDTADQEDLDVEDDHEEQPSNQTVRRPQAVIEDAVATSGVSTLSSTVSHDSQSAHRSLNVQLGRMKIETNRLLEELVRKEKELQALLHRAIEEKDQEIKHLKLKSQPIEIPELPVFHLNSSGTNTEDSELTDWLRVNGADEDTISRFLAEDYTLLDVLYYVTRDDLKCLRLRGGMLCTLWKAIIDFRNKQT

As to `Cc1cc(F)c(C(=O)Nc2cccc(-c3nnc4n3CCCC4O)n2)cc1-n1cnc(C2CC2)c1` (stereo not shown) [WX016], the IC50 in data set [1] (setting [3]) was 4.12 nM.
Same read-out and setting: under `COCCOc1cc(F)c(C(=O)Nc2cccc(-c3nnc4n3CCCC4)n2)cc1-n1cnc(C2CC2)c1` [WX007] stands 16.6 nM.
With `Cc1cc(F)c(C(=O)Nc2cccc(-c3nnc4n3CCCC4)n2)cc1-n1nnc(C2CC2)n1` [WX004], the results for the 50% inhibitory concentration (IC50) in data set [1] (setting [4]) and in data set [1] (setting [3]) were over 100 nM and over 1000 nM, respectively.
For `O=C(Nc1cccc(-c2nnc3n2CCCC3)n1)c1cc(-n2cnc(C3CC3)c2)c(OCC2COC2)cc1F` [WX011], the half-maximal inhibitory concentration (IC50) in data set [1] (setting [3]) was found to be 7.61 nM.
On to `Cc1cc(F)c(C(=O)Nc2cccc(-c3nnc4n3CCCC4)n2)cc1-n1cnc(C2CC2)c1` [WX002], for which the “Exposure” value in data set [2] (intravenous or oral (intragastric) administration) is 408.566 µM·h. The bioavailability in data set [2] (mouse, intragastric vs intravenous administration) stood at 156%. For the same compound, the IC50 was at most 100 nM in data set [1] (setting [4]) and 5.6 nM in data set [1] (setting [3]).
On to `Cc1cc(F)c(C(=O)Nc2cccc(-c3nnc4n3CCCC4)n2)cc1-n1cnc(C2CC2)n1` [WX005], for which the IC50 in data set [1] (setting [4]) is at most 100 nM; in data set [1] (setting [3]) it was 35.3 nM.
As to `O=C(Nc1cccc(-c2nnc3n2CCCC3)n1)c1cc(-n2cnc(C3CC3)c2)c(-c2cccnc2)cc1F` [WX006], the concentration for half-maximal inhibition (IC50) in data set [1] (setting [3]) came to 19.2 nM.
Turning to `O=C(Nc1cccc(-c2nnc3n2CCCC3)n1)c1cc(-n2cnc(C3CC3)c2)c(O)cc1F` [WX008], in data set [1] (setting [3]), the IC50 amounted to 5.44 nM.
Same read-out and setting: under `O=C(Nc1cccc(-c2nnc3n2CCCC3)n1)c1cc(-n2cnc(C3CC3)c2)c(OCCF)cc1F` [WX012] stands 7.04 nM.
The same measure, in the same setting: the value for `O=C(Nc1cccc(-c2nnc3n2CCCC3)n1)c1cc(-n2cnc(C3CC3)c2)c(N2CCOCC2)cc1F` [WX015] was 10.1 nM.
Regarding `Cc1cc(F)c(C(=O)Nc2cccc(-c3nnc4n3CCC4)n2)cc1-n1cnc(C2CC2)c1` [WX001], the figures for the 50% inhibitory concentration (IC50) in data set [1] (setting [4]) and in data set [1] (setting [3]) were at most 100 nM and 1.82 nM, respectively.
On to `O=C(Nc1cccc(-c2nnc3n2CCCC3)n1)c1cc(-n2cnc(C3CC3)c2)c(OCCCF)cc1F` [WX013], for which the IC50 in data set [1] (setting [3]) was 7.93 nM.
Consider `Cc1cc(F)c(C(=O)Nc2cccc(-c3nnc4n3CCCC4)n2)cc1-n1cc(C2CC2)nn1` [WX003], for which the 50% inhibitory concentration (IC50) in data set [1] (setting [4]) was over 100 nM; in data set [1] (setting [3]) it was 943 nM.
With `CC1(COc2cc(F)c(C(=O)Nc3cccc(-c4nnc5n4CCCC5)n3)cc2-n2cnc(C3CC3)c2)COC1` [WX010], in data set [1] (setting [3]), the 50% inhibitory concentration (IC50) amounted to 7.2 nM.
Still for that read-out and setting: under `CN(C)c1cc(F)c(C(=O)Nc2cccc(-c3nnc4n3CCCC4)n2)cc1-n1cnc(C2CC2)c1` [WX014] stands 10.7 nM.
